Measurements taken from patent US8242081B2, “Cell penetrating peptides for intracellular delivery of molecules” (Centre National de la Recherche Scientifique, priority 2005, dated 2012).
pEC50: −log10 of the molar value. Read-outs that look alike come from different tables or passages of the source. Peptide text beside a SMILES is read from it.

What was measured:
HS-68 and Hela cells = assay: Toxicity of CADY variants, MTT assay (Table 1); type: cell-based, human
Experimental: The toxicity of CADY peptides has been investigated on different cell lines. Cells were incubated in the presence of increasing concentrations of CADY (from 0.1 μM to 1 mM) for 12 hrs and cell viability was estimated using MTT assay.
The different CADY variants have been tested on HS-68 and Hela cells.
The lack of toxicity of CADY/cargo complexes can be directly associated to absence of free carrier peptide in the solution (FIG. 4B).

[1] = system: 5PC3 or Human H1299 adenocarcinoma cells; assay: Intravenous injection of siRNA/CADY complexes, tumor mouse models; type: in vivo, NCR nude mice; conditions: only one injection, siRNA 10 μg
Experimental: Experiments were performed on two tumor mouse models.
(A) 1×10^6 5PC3 adenocarcinoma cells were injected subcutaneously into the flanks of NCR nude mice (day 1). siRNA/CADY-S complexes were obtained as described before at a ratio 1:20. CADY-S/siRNA complexes were injected intravenously at day 7. The size of the tumor was measured every day. Results correspond to the average of 5 different animals.
(B) 1×10^6 tumor cells expressing luciferase were injected intraperitoneally in the mice (4 to 8 week-old immune competent A/J female mices). Tumors were monitored using in vivo Imaging System (IVIS-Xenogen), which quantified total body bioluminescence after injection of D-luciferin. The tumor cells are visualized on three mice, each representative of one group (siRNA alone, CADY/siRNA complexes, and CADY-S/siRNA complexes).
The in vivo efficiency of CADY-S was then investigated, in order to determine if the cholesterol-modified form of CADY can improve siRNA delivery through intravenous injection and block tumor growth in vivo. Experiments were performed on two tumor mouse models, in which 5PC3 or Human H1299 adenocarcinoma cells were injected subcutaneously into the flanks of NCR nude mice.

[2] = system: Jurkat, WI-38, HS-68 and HeLa cells; assay: CADY-2-mediated delivery of p27-derived peptides, cell arrest in G1 by FACS; type: cell-based
Experimental: FIG. 12: The different p27-derived peptides were associated with CADY-2 at a molar ratio of 1/20, since it was determined that at this ratio, the average size of the particle is of about 100-200 nm in diameter. The formulations were obtained in phosphate buffer, using a fixed concentration of peptide of 1 μM. Cell lines were cultured in Dulbecco's Modified Eagle's Medium supplemented with 2 mM glutamine, 1% antibiotics (streptomycin 10'000 μg/ml, penicillin, 10'000 IU/ml) and 10% (w/v) fetal calf serum (FCS), at 37° C. in a humidified atmosphere containing 5% CO2. Cells were synchronized by serum privation during 40 hrs, and cultured in Dulbecco's Modified Eagle's Medium supplemented with 2 mM glutamine, 1% antibiotics. G1 synchronized cells were released upon serum addition, then overlaid with preformed CADY-2/peptide complexes. After 30 min incubation at 37° C., 1 ml of fresh DMEM supplemented with 10% fetal calf serum was added directly to the cells, without removing the overlay of CADY/peptide complexes, and cells were returned to the incubator. The level of cell arrest in G1 was analyzed by FACS 24 hrs after release.

[3] = system: Human H1299 adenocarcinoma cells; assay: Effect of p1p27/CADY complexes on tumor growth in vivo, intratumoral injection; parameters: species or system Swiss nude mice; conditions: 5 weeks after injection, control experiments
Experimental: The tumor animal model consists of Swiss nude mice, injected subcutaneously with 2×10^7 Human H1299 adenocarcinoma cells. CADY2/p1p27 complex and free CADY-2 and peptides were injected directly into the tumor (100-300 μg) after 1 and 4 weeks. p1p27/CADY complexes were obtained as described before at a ratio 1/20. Controls were performed by injecting PBS, CADY alone, or naked p1p27 instead of the p1p27/CADY-2 complex. The size of the tumor volume was measured with calipers once a week. Results correspond to the average of 5 different animals.

[4] = peptide delivered with CADY-2, ratio 1/20, 1 μM peptide, 24 hrs after release

## CC(=O)NCC(=O)N[C@@H](CC(C)C)C(=O)N[C@@H](Cc1c[nH]c2ccccc12)C(=O)N[C@@H](CCCNC(=N)N)C(=O)N[C@@H](C)C(=O)N[C@@H](CC(C)C)C(=O)N[C@@H](Cc1c[nH]c2ccccc12)C(=O)N[C@@H](CCCNC(=N)N)C(=O)N[C@@H](CC(C)C)C(=O)N[C@@H](CC(C)C)C(=O)N[C@@H](CCCNC(=N)N)C(=O)N[C@@H](CO)C(=O)N[C@@H](CC(C)C)C(=O)N[C@@H](Cc1c[nH]c2ccccc12)C(=O)N[C@@H](CCCNC(=N)N)C(=O)N[C@@H](CC(C)C)C(=O)N[C@@H](CC(C)C)C(=O)N[C@@H](Cc1c[nH]c2ccccc12)C(=O)N[C@@H](CCCCN)C(=O)N[C@@H](C)C(=O)NCCSS[C@H]1CC[C@@]2(C)C(=CC[C@H]3[C@@H]4CC[C@H]([C@H](C)CCCC(C)C)[C@@]4(C)CC[C@@H]32)C1 [CADY-S2] (HELM PEPTIDE1{[ac].G.L.W.R.A.L.W.R.L.L.R.S.L.W.R.L.L.W.K.A.[CC(C)CCC[C@@H](C)[C@H]1CC[C@H]2[C@@H]3CC=C4C[C@@H](SSCCN[*:1])CC[C@]4(C)[C@H]3CC[C@]12C]}$$$$V2.0)
HS-68 and Hela cells; 12 h
  pEC50: 3.10

## CC(C)CCC[C@@H](C)[C@H]1CC[C@H]2[C@@H]3CC=C4C[C@@H](OC(=O)NCC(=O)N[C@@H](CC(C)C)C(=O)N[C@@H](Cc5c[nH]c6ccccc56)C(=O)N[C@@H](CCCNC(=N)N)C(=O)N[C@@H](C)C(=O)N[C@@H](CC(C)C)C(=O)N[C@@H](Cc5c[nH]c6ccccc56)C(=O)N[C@@H](CCCNC(=N)N)C(=O)N[C@@H](CC(C)C)C(=O)N[C@@H](CC(C)C)C(=O)N[C@@H](CCCNC(=N)N)C(=O)N[C@@H](CO)C(=O)N[C@@H](CC(C)C)C(=O)N[C@@H](Cc5c[nH]c6ccccc56)C(=O)N[C@@H](CCCNC(=N)N)C(=O)N[C@@H](CC(C)C)C(=O)N[C@@H](CC(C)C)C(=O)N[C@@H](Cc5c[nH]c6ccccc56)C(=O)N[C@@H](CCCCN)C(=O)N[C@@H](C)C(=O)NCCS)CC[C@]4(C)[C@H]3CC[C@]12C [CADY-S] (HELM PEPTIDE1{[CC(C)CCC[C@@H](C)[C@H]1CC[C@H]2[C@@H]3CC=C4C[C@@H](OC(=O)[*:2])CC[C@]4(C)[C@H]3CC[C@]12C].G.L.W.R.A.L.W.R.L.L.R.S.L.W.R.L.L.W.K.A.[SCCN[*:1]]}$$$$V2.0)
[1]
  tumor growth: fully abolish the tumor growth
HS-68 and Hela cells; complexed with cargo (ratio 1/20), MTT, read-out: complexed EC50
  pEC50: 3.00

## PSLERMDAR [pRXL]
[2]; pRXL with CADY strategy
  efficiency compared with published TAT or Pen covalent based strategy: at least 2 fold
[2]; [4]
  cell cycle arrest in G1: induced a cell cycle arrest in G1

## NRTEENVSDGSPNAGSVEQTPKKPGLR [p2p27, p27-derived peptide used as a negative control, reference compound]
[2]; [4]
  cell cycle arrest in G1: no effect

## RVSNGSPSLERMDARQAEHPKPSACRNL [p1p27]
[3]
  increase of tumor size: 5 fold
[2]; carrier alone or free peptide
  cell cycle arrest in G1: no effect
[2]; [4]
  cell cycle arrest in G1: induced a cell cycle arrest in G1
